The source of these data is patent US12012394B2, “Alpha-synuclein ligands” (Washington University, priority 2018, dated 2024).

Test [1] addresses Banner seeded fibrils (Homo sapiens (Human), UniProt P37840). The test can be described thus: Saturation binding of [125I]TZ61-84 to Banner seeded fibrils. Conditions: 100 nM Banner seeded fibrils, saturation binding. As for the experimental part: The binding efficacy (Kd) of TZ-61-84 was determined using a modified protocol. Specifically, saturation plots of radiolabeled [^125I]TZ61-84 were obtained measuring total and nonspecific binding of TZ61-84 to 100 nM Banner seeded fibrils. The results are depicted in FIG. 15B-15D and that TZ61-84 has a high binding affinity to α-synuclein (Kd<1 nM).

Test [2] concerns the target PD-seeded fibrils (Homo sapiens (Human), UniProt P37840). Nature of the test: Heterologous competition binding assay with [18F]TZ61-44 as radioligand. Conditions: radioligand [18F]TZ61-44, 25 nM PD-seeded fibrils. As for the experimental part:
The equilibrium inhibitor constant (Ki) of a series of compounds was measured using heterologous radioactive binding assays with [^18F]TZ61-44, […], or [^125I]TZ61-84 as the screening radioligands. EC50 values for each compound were determined by fitting the data to the equation Y=Bottom+(Top−Bottom)/(1+(X−Log EC50)^−Hillcoefficient) using nonlinear regression by Kaleidagraph software, where Top and Bottom are the Y values for the top and bottom plateaus of the binding curve. The Ki values were derived from the EC50 values using the Cheng-Prusoff equation: Ki=EC50/(1+[radioligand]/Kd). FIGS. 5A-5E show the inhibition curves for TG-1-90B, TZ55-101, TZ61-84, TZ55-107, and TZ55-81 using [^18F]TZ61-44 as the radioligand. FIG. 11B-C show the inhibition curves for two separate experiments on PD fibrils for TZ55-101 using […] as the radioligand. FIGS. 12A-12F show the inhibition curves for TZ66-3, TZ64-015, TZ64-016, TZ64-018, TZ64-019, and TZ64-020 using [^18F]TZ61-44 as the radioligand. FIGS. 13A-13D show the inhibition curves for TZ66-9, TZ66-8, and TZ55-107 using [^18F]TZ61-44 as the radioligand.

Values joined by “and” are separate entries in the source; they are usually repeats but may differ in a detail not shown here. Identical values can stand only once.

Broadly, the Kd is a measure of binding affinity in units of concentration. A higher Kd goes with lower affinity. For orientation: EC50 means the concentration needed to bring the measured effect to its halfway point. As a reminder, the Ki is the dissociation constant of the complex between target and ligand, obtained from inhibition or displacement. Turning to `COc1ccc2nc(-c3csc(C=O)c3)ccc2c1` [TZ55-81], the dissociation constant (Kd) in test [1] is 0.34 nM and 0.5 nM. Further, in test [2], the midpoint of the response, the EC50, lay at 46 nM. Moreover, in test [2] (Cheng-Prusoff from EC50), the affinity corresponds to a Ki of 43 nM.
